Assay results: ChEMBL document CHEMBL3352580, “Teucrium polium phenylethanol and iridoid glycoside characterization and flavonoid inhibition of biofilm-forming Staphylococcus aureus” (2015)
Active and inactive are the calls of the source. The rule behind the calls is not given here.

Experiments:
[1] = tested on: Staphylococcus aureus; experiment: Inhibition of biofilm formation in Staphylococcus aureus AH133 transformed with GFP assessed as zone of inhibition at 16 mg/ml after 24 hrs by confocal laser scanning microscopy; type: functional; conditions: for zone of inhibition at 16000 µg/mL: AH133, 24 h, read-out: IZ
[2] = tested on: Staphylococcus aureus; experiment: Inhibition of biofilm formation in Staphylococcus aureus AH133 transformed with GFP assessed as reduction in recovery of CFU at 80 ug/disc after 24 hrs by confocal laser scanning microscopy; type: functional, organism-based
[3] = tested on: Staphylococcus aureus; experiment: Inhibition of biofilm formation in Staphylococcus aureus AH133 transformed with GFP assessed as zone of inhibition at 10 to 20 ug/disc after 24 hrs by confocal laser scanning microscopy; type: functional, organism-based
[4] = tested on: Staphylococcus aureus; experiment: Inhibition of biofilm formation in Staphylococcus aureus AH133 transformed with GFP assessed as zone of inhibition at 40 to 80 ug/disc after 24 hrs by confocal laser scanning microscopy; type: functional, organism-based

Compound	inhibition [1]	inhibition [2]	inhibition [3]	zone of inhibition at 16000 µg/mL [1] [mm]	inhibition [4]
CC1(C)S[C@@H]2[C@H](NC(=O)[C@H](N)c3ccccc3)C(=O)N2[C@H]1C(=O)O	Active	–	–	–	–
O=c1cc(-c2ccc(O)c(O)c2)oc2cc(O)c(O)c(O)c12 [6-HYDROXYLUTEOLIN]	–	Active	inactive	8	Active
COc1cc2oc(-c3ccc(O)c(O)c3)cc(=O)c2c(O)c1OC [CIRSILIOL]	–	Active	inactive	10.3	Active
